Measurements: patent US20250257034A1, “INDOLE DERIVATIVES AS SEROTONERGIC AGENTS USEFUL FOR THE TREATMENT OF DISORDERS RELATED THERETO” (priority 2023, published 2025)
Several values for one entry are separate records, joined by “and”; a condition that tells them apart may be missing. Equal values may be shown once.

Columns and labels:
Format in all cases: in vitro ADME
[1] = Rat liver microsomes stability; settings: for CLint (μL/min/mg protein) / t1/2 / half-life at 2 μM / microsomal CLint at 2 μM: 2 μM compound; for half-life at 2 μM / microsomal CLint at 2 μM: male, rat; for microsomal CLint at 2 μM: read-out: CLint (μL/min/mg protein)
Protocol: (§1) The objective of this study was to estimate in vitro metabolic stability of exemplary compounds of Formula (I) or a pharmaceutically acceptable salt, solvate, and/or prodrug thereof in pooled human, male rat, and male mouse liver microsomes. The concentrations of compounds in reaction systems were evaluated by LC-MS/MS for estimating the stability in pooled human, male rat, and male mouse liver microsomes. The in vitro intrinsic clearances of test compounds were determined as well.
(§2) A master solution in the “Incubation Plate” containing phosphate buffer, ultra-pure H2O, MgCl2 solution and liver microsomes was made according to Table 33. The mixture was pre-warmed at 37° C. water bath for 5 minutes.
(§3) 40 μL of 10 mM nicotinamide adenine dinucleotide phosphate (NADPH) solution was added to each well. The final concentration of NADPH was 1 mM. The negative control samples were prepared by replacing NADPH with 40 μL of ultra-pure H2O. Samples were prepared in duplicate. Negative controls were prepared in singlet.
(§4) The reaction was started with the addition of 4 μL of 200 μM exemplary test compounds of the disclosure or control compounds to each master solution to get the final concentration of 2 μM. This study was performed in duplicate.
(§5) Aliquots of 50 μL were taken from the reaction solution at 0, 15, 30, 45, and 60 minutes. The reaction solutions were stopped by the addition of 4 volumes of cold methanol with IS (100 nM alprazolam, 200 nM imipramine, 200 nM labet alol and 2 μM ketoprofen). Samples were centrifuged at 3,220 g for 40 minutes. Aliquot of 90 μL of the supernatant was mixed with 90 μL of ultra-pure H2O and then was used for LC-MS/MS analysis.
(§6) LC/MS analysis was performed for all samples from this study using a Shimadzu liquid chromatograph separation system equipped with degasser DGU-20A5R; solvent delivery unit LC-30AD; system controller SIL-30AC; column oven CTO-30A; CTC Analytics HTC PAL System. Mass spectrometric analysis was performed using a Triple Quad™ 5500 instrument.
(§7) All calculations were carried out using Microsoft Excel. Peak area ratios of test compound to internal standard (listed in the below table) were determined from extracted ion chromatograms.
(§8) All calculations were carried out using Microsoft Excel. Peak areas were determined from extracted ion chromatograms. The slope value, k, was determined by linear regression of the natural logarithm of the remaining percentage of the parent drug vs. incubation time curve.
(§9) The in vitro half-life (in vitro t1/2) was determined from the slope value:
(§10) Conversion of the in vitro t1/2(min) into the in vitro intrinsic clearance (in vitro CLint, in μL/min/mg proteins) was done using the following equation (mean of duplicate determinations): […]
(§11) A master solution in the “Incubation Plate” containing phosphate buffer, ultra-pure H2O, MgCl2 solution and liver microsomes was made according to Table 63. The mixture was pre-warmed at 37° C. water bath for 5 minutes.
(§12) 40 μL of 10 mM NADPH solution was added to each well. The final concentration of NADPH was 1 mM. The negative control samples were prepared by replacing NADPH with 40 μL of ultra-pure H2O. Samples were prepared in duplicate. Negative controls were prepared in singlet.
(§13) Conversion of the in vitro t1/2(min) into the in vitro intrinsic clearance (in vitro C Lt, in μL/min/mg proteins) was done using the following equation (mean of duplicate determinations): […]

[2] = Mouse liver microsomes stability; settings: for microsomal CLint at 2 μM: mouse, read-out: CLint (μL/min/mg protein)
Protocol: as §1, §2, §3, §4, §5, §6, §7, §8, §9, §10, §11, §12, §13

[3] = Human liver microsomes stability; settings: for CLint (μL/min/mg protein) / t1/2: 2 μM compound
Protocol: as §1, §2, §3, §4, §5, §6, §7, §8, §9, §10, §11, §12, §13

[4] = Rat liver microsomes, 0.5 mg/mL microsomes, 1 mM NADPH
[5] = Rat liver microsomes, 0.5 mg/mL microsomes, 1 mM NADPH, 37° C
[6] = pooled liver microsomes, rat liver microsomes, 0.5 mg/mL
[7] = rat liver microsomes, 0.5 mg/mL
[8] = rat liver microsomes, With Cofactors, 0 min
[9] = rat liver microsomes, With Cofactors, 30 min
[10] = rat liver microsomes, With Cofactors, 60 min
[11] = rat liver microsomes, Without Cofactors, 0 min
[12] = rat liver microsomes, Without Cofactors, 30 min
[13] = rat liver microsomes, Without Cofactors, 60 min
[14] = mouse liver microsomes, 2 μM compound, 0.5 mg/mL
[15] = mouse liver microsomes, With Cofactors, 0 min
[16] = mouse liver microsomes, With Cofactors, 30 min
[17] = mouse liver microsomes, With Cofactors, 60 min
[18] = mouse liver microsomes, Without Cofactors, 0 min
[19] = mouse liver microsomes, Without Cofactors, 30 min
[20] = mouse liver microsomes, Without Cofactors, 60 min
[21] = human liver microsomes, With Cofactors, 0 min
[22] = human liver microsomes, With Cofactors, 30 min
[23] = human liver microsomes, With Cofactors, 60 min
[24] = human liver microsomes, Without Cofactors, 0 min
[25] = human liver microsomes, Without Cofactors, 30 min
[26] = human liver microsomes, Without Cofactors, 60 min
[27] = human liver microsomes, 0.5 mg/mL

## O=C(O)Cc1ccccc1Nc1c(Cl)cccc1Cl [Diclofenac]
[1]; Rat liver microsomes
  Predicted hepatic CL: 41.22 mL/min/kg and 41.25 mL/min/kg
[1]; [4]
  CLint (μL/min/mg protein): 91.05 μL/min/mg protein
[1]; [5]
  t1/2: 15.22 min
[1]; liver microsomes, Rat liver microsomes, 0.5 mg/mL microsomes, 1 mM NADPH, 37° C
  half-life at 2 μM: 15.3 min
[1]; liver microsomes, Rat liver microsomes, 0.5 mg/mL microsomes, 1 mM NADPH
  microsomal CLint at 2 μM: 90.8 µL/min/mg
[1]; [6]
  half-life at 2 μM: 15.1 min
  microsomal CLint at 2 μM: 91.9 µL/min/mg
[1]; rat liver microsomes
  Predicted hepatic CL: 41.34 mL/min/kg and 41.25 mL/min/kg
[1]; [7]
  CLint (μL/min/mg protein): 91.05 μL/min/mg protein
  t1/2: 15.22 min
[1]; [8]
  Remaining Percentage (%): 100.00%
[1]; [9]
  Remaining Percentage (%): 11.86%
[1]; [10]
  Remaining Percentage (%): 6.35%
[1]; [11]
  Remaining Percentage (%): 100.00%
[1]; [12]
  Remaining Percentage (%): 102.19%
[1]; [13]
  Remaining Percentage (%): 100.63%
[2]; Mouse liver microsomes
  Predicted hepatic CL: 54.78 mL/min/kg and 56.11 mL/min/kg
[2]; male, liver microsomes, Mouse liver microsomes, 2 μM compound, 0.5 mg/mL microsomes, 1 mM NADPH
  microsomal CLint at 2 μM: 32 µL/min/mg
[2]; male, pooled liver microsomes, mouse liver microsomes, 2 μM compound, 0.5 mg/mL
  microsomal CLint at 2 μM: 32 µL/min/mg
[2]; male, Mouse liver microsomes, 2 μM compound, 0.5 mg/mL microsomes, 1 mM NADPH, 37° C
  half-life at 2 μM: 40.7 min
[2]; mouse liver microsomes
  Predicted hepatic CL: 54.78 mL/min/kg and 57.42 mL/min/kg
  Scaled-up CLint: 158.60 mL/min/kg
[2]; [14]
  CLint (μL/min/mg protein): 36.25 μL/min/mg protein
  t1/2: 38.23 min
[2]; [15]
  Remaining Percentage (%): 100.00%
[2]; [16]
  Remaining Percentage (%): 45.55%
[2]; [17]
  Remaining Percentage (%): 33.71%
[2]; [18]
  Remaining Percentage (%): 100.00%
[2]; [19]
  Remaining Percentage (%): 89.49%
[2]; [20]
  Remaining Percentage (%): 96.59%
[3]; Human liver microsomes
  Predicted hepatic CL: 18.38 mL/min/kg and 18.35 mL/min/kg
[3]; human liver microsomes
  Predicted hepatic CL: 18.44 mL/min/kg and 18.35 mL/min/kg
[3]; [21]
  Remaining Percentage (%): 100.00%
[3]; [22]
  Remaining Percentage (%): 5.01%
[3]; [23]
  Remaining Percentage (%): 1.77%
[3]; [24]
  Remaining Percentage (%): 100.00%
[3]; [25]
  Remaining Percentage (%): 112.67%
[3]; [26]
  Remaining Percentage (%): 96.67%

## COc1ccc2[nH]cc(CCN(C)C)c2c1 [Compound 5-MeO-DMT]
[1]; Rat liver microsomes
  Predicted hepatic CL: 49.02 mL/min/kg
  Scaled-up CLint: 437.56 mL/min/kg
[1]; [4]
  CLint (μL/min/mg protein): 244.17 μL/min/mg protein
[1]; [5]
  t1/2: 5.68 min
[1]; rat liver microsomes
  Predicted hepatic CL: 49.02 mL/min/kg
  Scaled-up CLint: 437.56 mL/min/kg
[1]; [7]
  CLint (μL/min/mg protein): 244.17 μL/min/mg protein
  t1/2: 5.68 min
[1]; [8]
  Remaining Percentage (%): 100.00%
[1]; [9]
  Remaining Percentage (%): 2.57%
[1]; [10]
  Remaining Percentage (%): 0.36%
[1]; [11]
  Remaining Percentage (%): 100.00%
[1]; [12]
  Remaining Percentage (%): 49.55%
[1]; [13]
  Remaining Percentage (%): 23.82%
[2]; Mouse liver microsomes
  Predicted hepatic CL: 54.19 mL/min/kg
  Scaled-up CLint: 136.21 mL/min/kg
[2]; Mouse liver microsomes, 2 μM compound, 0.5 mg/mL microsomes, 1 mM NADPH
  CLint (μL/min/mg protein): 31.13 μL/min/mg protein
[2]; Mouse liver microsomes, 2 μM compound, 0.5 mg/mL microsomes, 1 mM NADPH, 37° C
  t1/2: 44.52 min
[2]; mouse liver microsomes
  Predicted hepatic CL: 54.19 mL/min/kg
  Scaled-up CLint: 136.21 mL/min/kg
[2]; [14]
  CLint (μL/min/mg protein): 31.13 μL/min/mg protein
  t1/2: 44.52 min
[2]; [15]
  Remaining Percentage (%): 100.00%
[2]; [16]
  Remaining Percentage (%): 61.84%
[2]; [17]
  Remaining Percentage (%): 39.30%
[2]; [18]
  Remaining Percentage (%): 100.00%
[2]; [19]
  Remaining Percentage (%): 104.76%
[2]; [20]
  Remaining Percentage (%): 95.24%
[3]; Human liver microsomes
  Predicted hepatic CL: 18.09 mL/min/kg
  Scaled-up CLint: 143.22 mL/min/kg
[3]; Human liver microsomes, 0.5 mg/mL microsomes, 1 mM NADPH
  CLint (μL/min/mg protein): 114.19 μL/min/mg protein
[3]; Human liver microsomes, 0.5 mg/mL microsomes, 1 mM NADPH, 37° C
  t1/2: 12.14 min
[3]; human liver microsomes
  Predicted hepatic CL: 18.09 mL/min/kg
  Scaled-up CLint: 143.22 mL/min/kg
[3]; [27]
  CLint (μL/min/mg protein): 114.19 μL/min/mg protein
  t1/2: 12.14 min
[3]; [21]
  Remaining Percentage (%): 100.00%
[3]; [22]
  Remaining Percentage (%): 19.24%
[3]; [23]
  Remaining Percentage (%): 3.25%
[3]; [24]
  Remaining Percentage (%): 100.00%
[3]; [25]
  Remaining Percentage (%): 18.58%
[3]; [26]
  Remaining Percentage (%): 3.00%
